Our source for the ED50, LD50 and ED (DT10 (ten lever presses)) values is patent US4333944A, “8-Halo-6-phenyl-4H-s-triazolo (3,4-c) thieno 1,4-diazepin-1-ones” (Boehringer Ingelheim GmbH, priority 1977, dated 1982).

The subject of data set [1] is lethal effect of 125 mgm/kg of pentylene tetrazole. Briefly: Pentetrazole antagonism, mouse. The note with it: po, 1 h, peroral, suspension in olive oil, 125 mgm/kg pentylene tetrazole i.p. one hour after test compound, graphically determined. Format: in vivo, mouse (albino, NMRI). The procedure:
(§1) Albino mice (NMRI) having a body weight of 20 to 25 gm or albino rats (FW49) having a body weight of 140 to 200 gm were used for the tests, and the test compound was in all cases administered perorally in suspension in olive oil by means of an esophageal sound.
(§2) The pentylene tetrazole is administered intraperitoneally one hour after administration of the test compound [see M. I. Gluckmann, Curr. Ther. Res. 7, 721 (1965)].
(§3) The values shown in the following table are graphically determined.

A short description of the next data set: Acute toxicity. The arrangement: species or system mouse (albino, NMRI). The note with it: in vivo, po; mouse; peroral, suspension in olive oil; graphically determined.
Description: as §1
Determination of the median lethal dose (LD50), i.e. the dose which causes 50% of the test animals to die [Litchfield and Wilcoxon, J. Phamacol. Exper. Therap. 96,99 (1949)].
as §3

Data set [2] concerns lethal effect of 125 mgm/kg of pentylene tetrazole. Briefly: Pentetrazole antagonism, rat. The format is in vivo, rat (albino, FW49). The note with it: po, 1 h, peroral, suspension in olive oil, 125 mgm/kg pentylene tetrazole i.p. one hour after test compound, graphically determined. On the procedure:
as §1, §2, §3

In data set [3] the test system is test animals in a conflict situation. Nature of the data set: Conflict situation (inhibition of passive avoidance). Format: in vivo, rat (albino, FW49). The settings on record: po; rat; peroral, suspension in olive oil; dose at which animals depress lever ten times despite signalled shock; graphically determined.
Description: as §1
Determination of the dose of the test compound (DT10) at which the test animals in a conflict situation depress a lever ten times to receive a food pellet, even though a simultaneous visual signal indicates to them that they will also receive an electrical shock at the same time [see J. Geller, Arch. Int. Pharmacodyn. 149, 243 (1964)].
as §3

Some results are limits rather than exact numbers.

For `O=c1[nH]nc2n1-c1sc(Br)cc1C(c1ccccc1Cl)=NC2` [Example 1, 8-Bromo-6-(o-chloro-phenyl)-4H-s-triazolo[3,4-c]thieno-[2,3-e]1,4-diazepin-1-one], the figures for the ED50 in data set [1] and in data set [2] were 0.37 mg/kg and 1.9 mg/kg, respectively. For the same compound, the LD50 (in general, the dose at which mortality reaches 50%) in the data set “Acute toxicity” is over 2000 mg/kg. Further, in data set [3], the ED (DT10 (ten lever presses)) was 1.25 mg/kg.
